Measurements as given in article PMC6910946, “Multiple roles of Bet v 1 ligands in allergen stabilization and modulation of endosomal protease activity” (Allergy, 2019).
Like-named read-outs stand apart in the source and are kept apart here.

Assays:
[1] = test system: human monocyte‐derived dendritic cells (moDCs); experiment: Activation and cytokine secretion of human moDCs; type: cell-based; settings: Bet v 1 in complex with ligand, 24 h, no LPS co-stimulation
Method: The ability of ligand‐loaded Bet_v_1 to induce IgE‐antigen cross‐linking and basophil degranulation was assessed by mediator‐release assays using rat basophil (RBL‐2H3) cells, transfected with the human high‐affinity IgE receptor (FcεRI), as previously described.2, 24 In vitro uptake of labeled Bet_v_1 was performed using CD11c^+ murine bone marrow–derived dendritic cells (BMDCs). The maturation of human monocyte‐derived dendritic cells (moDCs) was analyzed as previously described.2 T‐cell proliferation assays using CD4^+ T‐cell hybridomas were performed as previously described.17 A detailed description of the in vitro assays is available (Appendix [Link], [Link]).
Immature moDCs from PBMCs of either healthy/non-atopic donors (n=5) or atopic patients (n=7) were isolated and cultured as described elsewhere.^6 Cell viability using the Aqua® dye (Invitrogen, Carlsbad, CA, USA), expression of CD1a (eBioscience, Inc., San Diego, CA, USA) and loss of CD14 (BD Biosciences) expression were analyzed by flow cytometry on a Navios flow cytometer (Beckman Coulter, Brea, CA, USA). Cells (1x10^6 cells/ml) were stimulated for 24 hours with 1 µg/ml of Bet v 1 either alone or in complex with one of the three ligands (DOC, PPE1 or Q3OS). As a control, unstimulated moDCs and the individual ligands without Bet v 1 were used at the same concentrations. The cell supernatant was frozen for the analysis of cytokine secretion. Of note, no LPS co-stimulation was induced. The following maturation markers were investigated: CD40 (eBioscience), HLA-DR, CD80, CD83 and CD86 (BD Biosciences). Cytokine expression of CCL17, IL-1β, IL-10 (BD Biosciences), TNFα and IL-6 (eBioscience) was determined by ELISA. Statistical analysis was performed using one-way ANOVA with a Bonferroni post-test to compare all groups. The study was approved by the ethics committee of the medical faculty of Technical University of Munich (54/17 S).

[2] = molecular target: T1, Bet_v_1 (Betula pendula, UniProt P15494); experiment: Thermal stability and secondary structure of Bet v 1 by circular dichroism (CD); type: physicochemical, Betula verrucosa; settings: for increased melting point (T m) of Bet v 1 bound to ligand: CD and FTIR spectroscopy; for ΔCD: change of Tm of Bet v 1 versus no ligand
T1 construct: made in house
T1 sequence (P15494 1-160): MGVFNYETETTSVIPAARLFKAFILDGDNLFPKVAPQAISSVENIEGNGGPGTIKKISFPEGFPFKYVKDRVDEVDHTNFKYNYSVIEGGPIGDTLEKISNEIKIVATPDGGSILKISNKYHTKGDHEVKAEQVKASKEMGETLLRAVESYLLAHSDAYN
From the text: (§1) Surface acoustic wave (SAW) technology and NMR spectroscopy were used to observe the interaction of Bet_v_1 with the selected compounds, including determination of the dissociation constant (K d). The influence of ligand binding on the secondary structure elements and the thermal stability of Bet_v_1 was monitored using circular dichroism (CD, JASCO J‐815 spectropolarimeter, Jasco) and Fourier transform infrared (FTIR) spectroscopy (Tensor II FTIR system, Bruker Optics Inc). A detailed description of these methods is available (Appendix [Link], [Link]).
(§2) The influence of ligand binding on the secondary structure elements and the thermal stability of Bet v 1 was addressed by circular dichroism (CD) and Fourier transform infrared (FTIR) spectroscopy. CD spectroscopy was performed with a JASCO J-815 spectropolarimeter fitted with a PTC-423S Peltier-type single position cell holder (Jasco, Tokyo, Japan) over the wavelength range 190 to 260 nm. For measurement, Bet v 1 with and without ligand was diluted in a 10 mM potassium phosphate buffer to a concentration of 0.1 mg/ml. The thermal stability analysis was recorded at 222 nm. The protein was denatured with a temperature slope of 1°C/min from 20 to 95°C.

[3] = molecular target: T1, Bet_v_1; experiment: Thermal stability of Bet v 1 by FTIR spectroscopy; type: physicochemical, Betula verrucosa; settings: for ΔFTIR: change of Tm of Bet v 1 versus no ligand; for T m FTIR: melting point of Bet v 1 with or without ligand
From the text: as §1, with “[Link]). […]” for “[Link]).”
Determination of secondary structure elements and thermal stability
as §2, with “1° C/min” for “1°C/min”, “95° C.” for “95°C.”
FTIR amide 1 and amide 2 spectra of Bet v 1 at concentrations of 1.0-2.0 mg/ml with and without ligand were recorded with an AquaSpec transmission cell adapted to a Tensor II FTIR system (Bruker Optics Inc., Billerica, MA, USA). Measurement was performed at a constant temperature (25° C), controlled by a Haake F8 thermostat (Thermo Electron, Germany) with internal temperature control. For data analysis, OPUS spectroscopy software 6.0 (Bruker Optics Inc., Billerica, MA, USA) was used. The Savitzky-Golay algorithm was applied on […]
vector-normalized amide 1 spectra (25 smoothing points) to obtain the second derivative. For the quantification of secondary structure elements, a Quant2 method of the OPUS software was used. For thermal stability analysis, spectra were recorded with a BioATR II unit (Bruker Optics Inc., Billerica, MA, USA) at 25 to 95° C (dT=2.5K). The determined relative signal change in the amide I band by creating a difference spectrum for each temperature point was used to calculate the melting point (Tm). […]

[4] = melting point of Bet v 1 with or without ligand, 222 nm

| SMILES | maturation marker expression and Th polarization‐associated cytokines [1] | T m CD [2] [°C] | secondary structure content of Bet v 1 [2] | increased melting point (T m) of Bet v 1 bound to ligand [2] | ΔFTIR [3] | T m FTIR [3] [°C] | secondary structure content of Bet v 1 ([2]; CD and FTIR, Figure S4) | ΔCD [2] | T m CD [2, 4] [°C] |
| --- | --- | --- | --- | --- | --- | --- | --- | --- | --- |
| C[C@H](CCC(=O)O)[C@H]1CC[C@H]2[C@@H]3CC[C@@H]4C[C@H](O)CC[C@]4(C)[C@H]3C[C@H](O)[C@]12C [DOC, sodium deoxycholate, reference compound] | None of the above described readouts was influenced | 67.44 | did not significantly alter its secondary structure content | approximately 4 °C | +3.22 °C | 66.6 |  |  |  |
| CCC1C(=O)CC(O)C1/C=C/C(O)CCCCCCCC(=O)O (stereo not shown) [PPE1, E1 phytoprostanes] | None of the above described readouts was influenced |  |  | ~7 °C | +5.93 °C | 69.31 | did not significantly alter its secondary structure content | +6.94 °C | 70.62 |
| O=c1c(O[C@@H]2O[C@H](CO)[C@@H](O)[C@H](O)[C@H]2O[C@@H]2O[C@H](CO)[C@@H](O)[C@H](O)[C@H]2O)c(-c2ccc(O)c(O)c2)oc2cc(O)cc(O)c12 [Q3OS, quercetin 3‐O‐sophoroside] | None of the above described readouts was influenced |  |  |  | +1.88 °C | 65.26 | did not significantly alter its secondary structure content | +0.36 °C | 64.04 |
